Test results reported in patent US20230416202A1, “Small Molecule Compounds and Compositions” (Telo Therapeutics, Inc., priority 2020, published 2023).
Like-named read-outs stand apart in the source and are kept apart here.

Experiments:
Type in all cases: cell-based, human
[1] = tested on: HEK293 cells; assay: HEK293 cytostatic; details: for IC50: read-out: wt Tert IC50 uM HEK293 cytostatic
[2] = tested on: HepG2 cells; assay: HepG2 cytostatic
[3] = tested on: wt TERT; assay: HEK293T hTERT mRNA assay (qPCR)
Procedure: (§1) HepG2 cells (hepatocyte carcinoma (HCC) cells; with mutated TERT) or HEK293T cells (with wild type (wt) TERT) were seeded at 4,000 cells/well in 96-well plates. The following day, test compounds were added to cells for at concentrations of 25 uM, 12.5 uM, 6.25 uM, 3.125 uM, 1.563 uM, 0.781 uM, 0.391 uM, 0.195 uM, 0.098 uM or vehicle control (0.1% DMSO). Each condition was tested in three replicate wells. 48 hours post drug addition, the cells were harvested for RNA using the 96-Magmax RNA Isolation kit (Cat. No. AM1830). RNA was converted to cDNA using the Superscript III First strand cDNA synthesis kit (Cat. No. 18080051). RNA and cDNA concentration and quality were determined using the NanoQuant nucleic acid quantification method. 500 ng cDNA from each sample was used to detect TERT mRNA via qPCR. GUSB was also measured as an internal control and fold change to vehicle control was determined using the delta CT method.

[4] = tested on: Mutant TERT; assay: HepG2 hTERT mRNA assay (qPCR); details: Homo sapiens; HepG2 cells (mutated TERT), 48 hours, TERT mRNA via qPCR
Procedure: as §1

[5] = Homo sapiens, HEK293, HEK293 cells
[6] = Homo sapiens, HEK-293T, wild type TERT, read-out: wt TERT IC50
[7] = Homo sapiens, HEK293 cells (wt TERT), 48 hours, class symbols, read-out: wt TERT IC50 uM HEK293

SMILES	IC50 ([1]; HEK293 cells) [µM]	IC50 [2] [µM]	IC50 ([3]; HEK293 cells (wt TERT), 48 hours, class symbols, read-out: wt TERT IC50 uM HEK293) [µM]	IC50 ([3]; wild type TERT, read-out: wt TERT IC50) [µM]	IC50 [1, 5] [µM]	IC50 [4] [µM]	IC50 ([2]; Homo sapiens) [µM]	IC50 [3, 6] [µM]	IC50 [3, 7] [µM]	wt Tert IC50 uM HEK293 cytostatic ([1]; HEK293 cells)	Cytostatic IC50 uM HepG2 cytostatic [2]
CC(C(=O)O)[C@@H]1C[C@@H](c2ccc(C(F)(F)F)cc2)CN(Cc2ccc(C(F)(F)F)cc2)C1 (single isomer, unassigned) [Compound 114]	0.5 to 5	0.5 to 5	> 25	> 25							
C#Cc1ccc(CN2C[C@H](CC(=O)O)C[C@@H](c3ccc(C(F)(F)F)cc3)C2)cc1 [Compound 112, 2-((3S,5S)-1-(4-ethynylbenzyl)-5-(4-(trifluoromethyl)phenyl)piperidin-3-yl)acetic acid]					> 25	< 0.5	0.5 to 5	> 25	> 25		
N#Cc1ccc([C@@H]2C[C@@H](CC(=O)O)CN(Cc3ccc(C(F)(F)F)cc3)C2)cc1 (racemic) [Compound 107, 2-((anti)-5-(4-cyanophenyl)-1-(4-(trifluoromethyl)benzyl)piperidin-3-yl)acetic acid]					> 25	5 to 25	5 to 25	> 25	> 25		
COc1ccc(CN2C[C@H](CC(=O)O)C[C@@H](c3ccc(C(F)(F)F)cc3)C2)cc1 [Compound 109]					5 to 25	> 25	0.5 to 5	> 25	> 25		
O=C(O)C[C@H]1C[C@H](c2cccc(C(F)(F)F)c2)CN(Cc2ccc(C(F)(F)F)cc2)C1 (racemic) [Compound 104, rac-2-((anti)-1-(4-(trifluoromethyl)benzyl)-5-(3-(trifluoromethyl)phenyl)piperidin-3-yl)acetic acid]					5 to 25		5 to 25	> 25	> 25		
O=C(O)CC1CC(c2ccc(C(F)(F)F)cc2)CN(Cc2ccc(C(F)(F)F)cc2)C1 (racemic) [Compound 100, rac-2-((anti)-1-(4-(trifluoromethyl)benzyl)-5-(4-(trifluoromethyl)phenyl)piperidin-3-yl)acetic acid]						0.5 to 5		> 25	> 25	“++”-“+”	“++”-“+”
O=C(O)C[C@H]1C[C@H](c2ccc(C(F)(F)F)cc2)CN(Cc2ccc(C(F)(F)F)cc2)C1 [Compound 102, 2-((3R,5R)-1-(4-(trifluoromethyl)benzyl)-5-(4-(trifluoromethyl)phenyl)piperidin-3-yl)acetic acid]					5 to 25	5 to 25	5 to 25	> 25	> 25		
COc1cc([C@H]2C[C@H](CC(=O)O)CN(Cc3ccc(C(F)(F)F)cc3)C2)cc(C(F)(F)F)c1 (racemic) [Compound 106, rac-2-((anti)-5-(3-methoxy-5-(trifluoromethyl)phenyl)-1-(4-(trifluoromethyl)benzyl)piperidin-3-yl)acetic acid]					5 to 25	0.5 to 5	0.5 to 5	> 25	> 25		
COc1ccc([C@H]2C[C@H](CC(=O)O)CN(Cc3ccc(C(F)(F)F)cc3)C2)cc1 (racemic) [Compound 105, 2-((anti)-5-(4-methoxyphenyl)-1-(4-(trifluoromethyl)benzyl)piperidin-3-yl)acetic acid]					5 to 25	0.5 to 5	5 to 25	> 25	> 25		
N#Cc1ccc(CN2C[C@H](CC(=O)O)C[C@@H](c3ccc(C(F)(F)F)cc3)C2)cc1 [Compound 115, 2-((3S,5S)-1-(4-cyanobenzyl)-5-(4-(trifluoromethyl)phenyl)piperidin-3-yl)acetic acid]					5 to 25	0.5 to 5	0.5 to 5	> 25	> 25		
COc1cc(CN2C[C@H](CC(=O)O)C[C@@H](c3ccc(C(F)(F)F)cc3)C2)cc(C(F)(F)F)c1 [Compound 108, 2-((3S,5S)-1-(3-methoxy-5-(trifluoromethyl)benzyl)-5-(4-(trifluoromethyl)phenyl)piperidin-3-yl)acetic acid]						> 25	> 25	> 25	> 25		
COc1cccc([C@H]2C[C@H](CC(=O)O)CN(Cc3ccc(C(F)(F)F)cc3)C2)c1 (racemic) [Compound 103, 2-((anti)-5-(3-methoxyphenyl)-1-(4-(trifluoromethyl)benzyl)piperidin-3-yl)acetic acid]					5 to 25	> 25	5 to 25	> 25	> 25		
CC(C(=O)O)[C@@H]1C[C@@H](c2ccc(C(F)(F)F)cc2)CN(Cc2ccc(C(F)(F)F)cc2)C1 (single isomer, unassigned) [Compound 113]	5 to 25					0.5 to 5	0.5 to 5	> 25	> 25		
